Results taken from patent US6372446B1, “Method of selectively determining a fungal biomass” (Mycometer ApS, priority 1997, dated 2002).

Columns and labels:
Experiment in all cases: Screening of fungi for enzyme activity with 4-methylumbelliferone-labelled substrates
Format in all cases: cell-based
[1] = tested on: Aspergillus oryzae (AGM 11); settings: substrate 10 μM, 25° C., pH 5; for Enzyme activity: amount of released 4-methylumbelliferone: mineral medium; for Enzyme activity: amount of released 4-methylumbelliferone during 5 hours of incubation: vegetable juice medium
[2] = tested on: Schizophyllum commune (AGM 25); settings: substrate 10 μM, 25° C., pH 5; for Enzyme activity: amount of released 4-methylumbelliferone: mineral medium; for Enzyme activity: amount of released 4-methylumbelliferone during 5 hours of incubation: vegetable juice medium
[3] = tested on: Aureobasidium pullulans (QM 3092); settings: substrate 10 μM, 25° C., pH 5; for Enzyme activity: amount of released 4-methylumbelliferone during 5 hours of incubation: Aureobasidium pulluians (QM 3092), vegetable juice medium; for Enzyme activity: amount of released 4-methylumbelliferone: Aureobasidium pullulans (QM 3092), mineral medium
[4] = tested on: Cladosporium herbarum (AGM 8); settings: substrate 10 μM, 25° C., pH 5; for Enzyme activity: amount of released 4-methylumbelliferone: mineral medium; for Enzyme activity: amount of released 4-methylumbelliferone during 5 hours of incubation: vegetable juice medium
[5] = tested on: Mucor racemosus (AAS 310); settings: substrate 10 μM, 25° C., pH 5; for Enzyme activity: amount of released 4-methylumbelliferone: mineral medium; for Enzyme activity: amount of released 4-methylumbelliferone during 5 hours of incubation: vegetable juice medium
[6] = tested on: Trametes versicolor (AGM 24); settings: substrate 10 μM, 25° C., pH 5; for Enzyme activity: amount of released 4-methylumbelliferone: mineral medium; for Enzyme activity: amount of released 4-methylumbelliferone during 5 hours of incubation: vegetable juice medium
[7] = tested on: Ascobolus crenulatus (AAS 1); settings: substrate 10 μM, 25° C., pH 5; for Enzyme activity: amount of released 4-methylumbelliferone: mineral medium; for Enzyme activity: amount of released 4-methylumbelliferone during 5 hours of incubation: vegetable juice medium
[8] = tested on: Penicillium commune (IBT 13713); settings: substrate 10 μM, 25° C., pH 5; for Enzyme activity: amount of released 4-methylumbelliferone: mineral medium; for Enzyme activity: amount of released 4-methylumbelliferone during 5 hours of incubation: vegetable juice medium
[9] = tested on: Sodaria fimicola (AAS 17); settings: substrate 10 μM, 25° C., pH 5; for Enzyme activity: amount of released 4-methylumbelliferone: mineral medium; for Enzyme activity: amount of released 4-methylumbelliferone during 5 hours of incubation: vegetable juice medium
[10] = tested on: Paecilomyces farinosus (AGM 5); settings: substrate 10 μM, 25° C., pH 5; for Enzyme activity: amount of released 4-methylumbelliferone: mineral medium; for Enzyme activity: amount of released 4-methylumbelliferone during 5 hours of incubation: vegetable juice medium
Eurotium sp. (AAS 36) = settings: substrate 10 μM, 25° C., pH 5; for Enzyme activity: amount of released 4-methylumbelliferone: mineral medium; for Enzyme activity: amount of released 4-methylumbelliferone during 5 hours of incubation: vegetable juice medium
[11] = tested on: Aspergillus versicolor (IBT 13738); settings: substrate 10 μM, 25° C., pH 5; for Enzyme activity: amount of released 4-methylumbelliferone: mineral medium; for Enzyme activity: amount of released 4-methylumbelliferone during 5 hours of incubation: vegetable juice medium
[12] = tested on: Rhizomucor pusillus (AAS 300); settings: substrate 10 μM, 25° C., pH 5; for Enzyme activity: amount of released 4-methylumbelliferone: mineral medium; for Enzyme activity: amount of released 4-methylumbelliferone during 5 hours of incubation: vegetable juice medium
[13] = tested on: Penicillium solitum (IBT 13771); settings: substrate 10 μM, 25° C., pH 5; for Enzyme activity: amount of released 4-methylumbelliferone: mineral medium; for Enzyme activity: amount of released 4-methylumbelliferone during 5 hours of incubation: vegetable juice medium

Row | Structure (SMILES) | Enzyme activity: amount of released 4-methylumbelliferone [1] | Enzyme activity: amount of released 4-methylumbelliferone during 5 hours of incubation [1] | Enzyme activity: amount of released 4-methylumbelliferone [2] | Enzyme activity: amount of released 4-methylumbelliferone during 5 hours of incubation [2] | Enzyme activity: amount of released 4-methylumbelliferone during 5 hours of incubation [3] | Enzyme activity: amount of released 4-methylumbelliferone [3] | Enzyme activity: amount of released 4-methylumbelliferone [4] | Enzyme activity: amount of released 4-methylumbelliferone during 5 hours of incubation [4] | Enzyme activity: amount of released 4-methylumbelliferone [5] | Enzyme activity: amount of released 4-methylumbelliferone during 5 hours of incubation [5] | Enzyme activity: amount of released 4-methylumbelliferone [6] | Enzyme activity: amount of released 4-methylumbelliferone during 5 hours of incubation [6] | Enzyme activity: amount of released 4-methylumbelliferone [7] | Enzyme activity: amount of released 4-methylumbelliferone during 5 hours of incubation [7] | Enzyme activity: amount of released 4-methylumbelliferone [8] | Enzyme activity: amount of released 4-methylumbelliferone during 5 hours of incubation [8] | Enzyme activity: amount of released 4-methylumbelliferone [9] | Enzyme activity: amount of released 4-methylumbelliferone during 5 hours of incubation [9] | Enzyme activity: amount of released 4-methylumbelliferone [10] | Enzyme activity: amount of released 4-methylumbelliferone during 5 hours of incubation [10] | other results
1 | CC(=O)N[C@H]1[C@H](Oc2ccc3c(C)cc(=O)oc3c2)O[C@H](COS(=O)(=O)O)[C@@H](O)[C@@H]1O [substrate 1, 4-methylumbelliferyl 7-6(sulfo-2-acetamido-2-deoxy-β-D-glucopyranoside)] | 0 µmol | 0 µmol | * (0.4 ≦ * < 1) | 0 µmol | 0 µmol | 0 µmol | 0 µmol | 0 µmol | * (0.4 ≦ * < 1) | * (0.4 ≦ * < 1) | 0 µmol | 0 µmol | 0 µmol | 0 µmol | 0 µmol | 0 µmol | 0 µmol | 0 µmol | 0 µmol | 0 µmol | Enzyme activity: amount of released 4-methylumbelliferone (Eurotium sp. (AAS 36)): 0 µmol; Enzyme activity: amount of released 4-methylumbelliferone during 5 hours of incubation (Eurotium sp. (AAS 36)): 0 µmol; Enzyme activity: amount of released 4-methylumbelliferone [11]: 0 µmol; Enzyme activity: amount of released 4-methylumbelliferone during 5 hours of incubation [11]: 0 µmol; Enzyme activity: amount of released 4-methylumbelliferone [12]: 0 µmol; Enzyme activity: amount of released 4-methylumbelliferone during 5 hours of incubation [12]: 0 µmol; Enzyme activity: amount of released 4-methylumbelliferone [13]: 0 µmol; Enzyme activity: amount of released 4-methylumbelliferone during 5 hours of incubation [13]: 0 µmol
2 | CC(=O)N[C@H]1[C@@H](Oc2ccc3c(C)cc(=O)oc3c2)O[C@H](CO)[C@@H](O)[C@@H]1O [substrate 2, 4-methylumbelliferyl N-acetyl-α-D-glucosaminide] | 0 µmol | 0 µmol | 0 µmol | 0 µmol | 0 µmol | 0 µmol | 0 µmol | 0 µmol | 0 µmol | 0 µmol | 0 µmol | 0 µmol | 0 µmol | 0 µmol | 0 µmol | 0 µmol | 0 µmol | 0 µmol | 0 µmol | 0 µmol | Enzyme activity: amount of released 4-methylumbelliferone (Eurotium sp. (AAS 36)): 0 µmol; Enzyme activity: amount of released 4-methylumbelliferone during 5 hours of incubation (Eurotium sp. (AAS 36)): 0 µmol; Enzyme activity: amount of released 4-methylumbelliferone [11]: 0 µmol; Enzyme activity: amount of released 4-methylumbelliferone during 5 hours of incubation [11]: 0 µmol; Enzyme activity: amount of released 4-methylumbelliferone [12]: 0 µmol; Enzyme activity: amount of released 4-methylumbelliferone during 5 hours of incubation [12]: 0 µmol; Enzyme activity: amount of released 4-methylumbelliferone [13]: 0 µmol; Enzyme activity: amount of released 4-methylumbelliferone during 5 hours of incubation [13]: 0 µmol
